Residues, ends and D or L forms follow the SMILES beside them. *: point of attachment. Biotin = O=C1N[C@H]2[C@H](CS[C@H]2CCCCC(=O)*)N1
Key:
[1] = Peptide delivery to brain cortex of undamaged animals; format: in vivo; conditions: 3 nmol/g i.v. (retro-orbital), undamaged male mice, sacrificed 30 min after; Fluorescein Avidin D (Fig S5)
Experimental: Vehicle (saline), Bio-TMyc or Bio-TT1Ct (3 nmol/g) were retro-orbitally injected in mice one hour after induction of photothrombotic damage or, alternatively, undamaged animals. In the first case, animals were sacrificed 5 h after damage induction while, the second group was sacrificed 30 min after peptide administration. The details of brain fixation and cryoprotection for peptide visualization and/or immunohistochemistry are provided in the Supplementary material. […]
Finally, the sa mple s were mounted in Prolong Diamond. The images were acquired using an inverted Zeiss LSM 710 laser confocal microscope (Jena, Germany) with a 40x or 63x Plan-Apochromatic oil immersion objective. Images corre spond to single se ctions and were normalized for eac h colour se para tely and process ed for presenta tion with ImageJ (NIH Image) and Fiji.
Peptide visualization and immunohistochemis tr y in brain cortex
For peptide visua liz ation in undamaged or damaged brains, animals were deeply anes thetized and intra cardially perfus ed with cold PBS and 4% paraformalde hyde in PBS. Brains were post-fixed in the sa m e fixative at 4°C for 24 h and cryoprote cted in 30% suc ros e for 48 h at 4°C. […]

[2] = Immunoglobulin infiltration in ischemic brain; format: in vivo; conditions: male mice, 24 h after insult; versus control peptide (Fig S7)
Experimental: (§1) The brains of animals injected one hour af ter the initiation of the photothrombotic damage with vehicle (saline), TMyc or TT1Ct (3 nmol/g) were process ed and cryoprote cted as before indicated. The duration of damage before sa cri f i ce was 5 h (male and female) or 24 h (male).
(§2) Coronal froze n se ctions were incubated with blocking solution as des cribe d in flota tion for 1 h at room temperature and then overnight with prima ry antibodies diluted in 4% goat se rum and 0.3% Triton X-100 in PBS at 4°C. After was hing, slides were incubated 1 h with Alexa Fluor 546- conjugated goat anti-rabbit or AlexaFluor 647- conjugated goat anti-mouse se condary antibodies to visua liz e the prima ry antibodies and DAPI (5 μg/ml). Only for Iba1 sta ining, blocking solution was 2.5% BS A, 5% goat se rum, 0.5% Triton X-100 in PBS, and se ctions were incubated with prima ry antibody 24 h at RT follow ed by was hing and Alexa Fluor 546-conjugated goat anti-rabbit and DAPI incubation for 1 h. Sections were then was hed in PBS, mounted on slides , dried for 15 min at 37 °C on a hot plate, or air dried overnight and then cover slipped with DPX or Prolong Diamond. Ce ll Obs erve d images were obtained with Zeiss microscope Observe r.Z1 using a 10x Plan-Apochromatic objective. […]

GFAP+/C3+ cells = assay: Immunohistochemistry of reactive astrocytes in ischemic brain; format: in vivo, mice; conditions: 3 nmol/g 1 h after damage; early after injury (5 h); versus TMyc
Experimental: as §1, §2

**Q.** Which “Crossing of the BBB and delivery to cortical cells” value [1] does the source give for CC[C@H](C)[C@H](NC(=O)[C@H](CC(C)C)NC(=O)[C@H](CCCCN)NC(=O)[C@H](CCC(N)=O)NC(=O)[C@H](CCC(=O)O)NC(=O)[C@H](CCC(=O)O)NC(=O)[C@H](C)NC(=O)[C@H](CCCNC(=N)N)NC(=O)[C@H](CCCNC(=N)N)NC(=O)[C@H](CCCNC(=N)N)NC(=O)[C@H](CCC(N)=O)NC(=O)[C@H](CCCNC(=N)N)NC(=O)[C@H](CCCNC(=N)N)NC(=O)[C@H](CCCCN)NC(=O)[C@H](CCCCN)NC(=O)[C@H](CCCNC(=N)N)NC(=O)CNC(=O)[C@H](Cc1ccc(O)cc1)NC(=O)CCCC[C@@H]1SC[C@@H]2NC(=O)N[C@@H]21)C(=O)N[C@@H](CO)C(=O)N[C@@H](CCC(=O)O)C(=O)N[C@@H](CCC(=O)O)C(=O)N[C@@H](CC(=O)O)C(=O)N[C@@H](CC(C)C)C(=O)N[C@@H](CC(C)C)C(=O)N[C@@H](CCCNC(=N)N)C(N)=O [Bio-TMyc, reference compound] (Biotin-YGRKKRRQRRRAEEQKLISEEDLLR-NH2) here?
**A.** Its value is “able to cross the BBB and efficiently reach most cortical cells in 30 min”.

**Q.** With Ac-YGRKKRRQRRRPPFVLFHKIPLDG-NH2 [TT1Ct] as the compound, how does the Immunoglobulin infiltration [2] read?
**A.** Its Immunoglobulin infiltration is “reduced immunoglobulin infiltration”.

**Q.** What about the “Effect on GFAP+/C3+ cells at the infarct boundary” value (GFAP+/C3+ cells) of the same compound?
**A.** Its value is “strong decrease”.

From publication PMC11984388, “A brain-accessible peptide modulates stroke inflammatory response and neurotoxicity by targeting BDNF-receptor TrkB-T1 specific interactome” (Theranostics, 2025)
